Experimental data: patent publication US11890318B2, “Methods and compositions for modulating appetite and intake of sodium” (California Institute of Technology, priority 2019, dated 2024)
Entries after “also recorded” stand apart in the source; their conditions may differ.

Key:
[1] = system: pre-LC^PDYN neurons expressing hM4Di; experiment: Slice electrophysiology, chemogenetic (hM4Di) inhibition by CNO; assay type: cell-based; settings: AAV-DIO-hM4Di-mCherry; 10 μM CNO puffed 10 sec; 2 mice; FIG. 8E
Protocol: 250-μm coronal slices were obtained using a vibratome (VT-1000s, Leica) in ice-cold sucrose-aCSF (artificial cerebrospinal fluid) solution (Sucrose 213, KCl 2.5, NaH2PO4 1.2, NaHCO3 25, glucose 10, MgSO4 7, CaCl2 1, in mM at pH 7.3), and then incubated in HEPES-holding aCSF (NaCl 92, KCl 2.5, NaH2PO4 1.2, NaHCO3 30, HEPES 20, glucose 25, Na-ascorbate 5, thiourea 2, Na-pyruvate 3, MgSO4 2, CaCl2 2, in mM at pH 7.3-7.4). Slices were recovered at 34.5° C. for 45 min and then held at room temperature until use.
For patch-clamp recording, slices were placed in a recording chamber perfused with aCSF (NaCl 124, KCl 2.5, NaH2PO4 1.2, NaHCO3 25, glucose 10, MgSO4 1, CaCl2 2, in mM, at pH 7.3) on an upright microscope (Examiner.D1, Zeiss). Whole-cell recordings were achieved using glass pipettes (5-8 MΩ) filled with intracellular solution (for DREADD and iC++ experiments, K-gluconate 145, NaCl 2, KCl 4, HEPES 10, EGTA 0.2, Mg-ATP 4, Na-GTP 0.3; for GABAergic postsynaptic currents, CsCl 145, NaCl 2, HEPES 10, EGTA 0.2, QX-314 bromide 5, Mg-ATP 4, Na-GTP 0.3, in mM at pH 7.25; for glutamatergic postsynaptic currents, Cs(CH3)SO3 145, NaCl 2, HEPES 10, EGTA 0.2, QX-314 bromide 5, Mg-ATP 4, Na-GTP 0.3, in mM, at pH 7.25). Electrical signals were filtered at 3 k Hz with Axon MultiClamp 700B (Molecular Devices) and collected at 20 kHz with Axon Digidata 1550A (Molecular Devices). […]

pre-LC^PDYN neurons [2] = experiment: Chemogenetic manipulation, sodium and water consumption; assay type: in vivo, mice; settings: CNO 10 mg/kg intraperitoneal
Text: For ChR2 photostimulation. 473 nm laser pulses (20 ms, 20 Hz) were delivered via an optic cable (MFP-FC-ZF, Doric Lenses) using a pulse generator (Sapphire 9200 from Quantum composers or SYS-A310 from WPI). The laser intensity was maintained at 5-10 mW at the tip of the fiber. Unless otherwise noted, photostimulation was delivered for 1 s at 3 s intervals throughout the behavior session. For iC++ photoinhibition, 473 nm laser was continuously turned on throughout the session at 3 mW at the tip of the fiber. For chemogenetic manipulation (FIGS. 8E-H), CNO (Sigma, 10 mg/kg) or vehicle (water) was administered intraperitoneal 20 min before the sodium consumption experiment.
To induce sodium appetite, animals were injected with furosemide (Sigma) at a dose of 50 mg/kg body weight. Low sodium diet (TD. 90228, ENVIGO) was provided for 2 days after the injection of furosemide. For water-restriction experiments, animals were kept in their home cage without water, and were provided with 1 mL of water daily. For food restriction experiments, animals were deprived of food up to 24 hrs with normal water provided. All assays were performed in a custom gustometer (Dialog Instruments) or Biodaq monitoring system (Research Diets Inc). All sodium-depleted animals were trained in a gustometer before experiments. Animals which licked at least 150 licks during the 30-min session were used for further behavioral assays. After every sodium-depletion round, animals were recovered for at least 4 days with the normal diet.
(§1) For appetite specificity assay (FIG. 7C), three different solutions were presented to animals during the same session, and their preference was measured as a lick number. For each trial, 20 sec of photostimulation was delivered to the animal with an inter-trial-interval of 60 secs. Water, 0.5 M KCl, 0.5 M NaCl, or 0.5 M NaCl+30 μM amiloride was used for preference assay. For sodium consumption assay (FIGS. 1E, 1G, and 1H), animals were given ad libitum access to 0.5 M NaCl, water or an empty spout for either 7.5 or 30 min.

pre-LC^PDYN neurons [3] = experiment: Fibre photometry recording of GCaMP6s signals from pre-LC^PDYN neurons during ingestion or IG infusion; assay type: in vivo, mice
Protocol: For photometry recording, animals were given either 5- or 10-minutes access to stimuli. To examine sodium specific responses of pre-LC^PDYN neurons (FIGS. 3D, 3E), animals were presented with three solutions during the session. First, animals were given 5 min access to 0.5 M KCl (FIG. 3D) or 0.5 M NaCl+0.1 mM amiloride (FIG. 3E). Then animals had 5 min access to water. Finally, animals were given 5 min access to 0.5 M NaCl. The interval between trials was 5 min. In FIG. 4B, 0.5 M NaCl, deionized water, or glucose solution (5 M) was infused via an intragastric catheter. Solutions were delivered at 0.1 ml/min for 5 min (water and sodium) or 10 min (food) using an infusion syringe pump (NE-300, New Era Pump Systems Inc). 10 min after gastric infusion, animals were given access to nutrients and their consumption was quantified for 10 min (for water and 0.5 M NaCl), or 30 min (for normal chow). Either air infusion (for water), or water infusion (for sodium and food) was used as a control stimulus. In FIG. 4D, either 0.15 M NaCl, water, or air was infused at a rate of 0.1 ml/min while recording the neural activity by photometry. For control, oral ingestion (FIG. 4C), the same set of animals were given access to 0.15 M NaCl. For all photometry assays, animals were acclimatized for 10-15 min in the chamber before stimuli were presented. Bulk fluorescence signals were collected using fibre photometry as previously described. Briefly, data were extracted and subjected to a low-pass filter at 1.8 Hz. A linear function was used to scale up the 405-nm channel signal to the 490-nm channel signal to obtain the fitted 405-nm signal. The resultant ΔF/F was calculated as (raw 490 nm signal−fitted 405 nm signal)/(fitted 405 nm signal). ΔF/F was then time-binned by a factor of 2.5 times the sampling frequency and down-sampled to 10 Hz. For all bouts, the mean fluorescence for 5 min before the first lick was calculated and subtracted from the entire session. The licks from the lickometer were simultaneously recorded. The area under the curve (AUC) was quantified by integrating the baseline-subtracted fluorescence signals for 30 sec after the start of the bout. For FIG. 10D, the data were quantified as ΔF/F change between 1 sec prior to, and at the first lick (0 sec). For IG infusion experiments (FIG. 4E), AUC was quantified during the 5-min of infusion.

[4] = Intragastric infusion and subsequent ingestive behavior; assay type: in vivo; settings: sodium-depleted mice
Protocol: In FIG. 4B, 0.5 M NaCl, deionized water, or glucose solution (5 M) was infused via an intragastric catheter. Solutions were delivered at 0.1 ml/min for 5 min (water and sodium) or 10 min (food) using an infusion syringe pump (NE-300, New Era Pump Systems Inc). 10 min after gastric infusion, animals were given access to nutrients and their consumption was quantified for 10 min (for water and 0.5 M NaCl), or 30 min (for normal chow). Either air infusion (for water), or water infusion (for sodium and food) was used as a control stimulus. In FIG. 4D, either 0.15 M NaCl, water, or air was infused at a rate of 0.1 ml/min while recording the neural activity by photometry. For control, oral ingestion (FIG. 4C), the same set of animals were given access to 0.15 M NaCl.

[5] = system: Pre-LC^PDYN-stimulated animals; experiment: Preference assay (appetite specificity) under photostimulation of pre-LC^PDYN neurons; assay type: in vivo, mice; settings: photostimulated animals; 0.5 M NaCl+30 μM amiloride; FIG. 7C
Protocol: as §1

dBNST→pre-LC neurons = experiment: Optical recording of calcium responses of dBNST→pre-LC neurons; assay type: in vivo, mice; settings: sodium-depleted conditions; FIG. 5F
Protocol: For all photometry assays, animals were acclimatized for 10-15 min in the chamber before stimuli were presented. Bulk fluorescence signals were collected using fibre photometry as previously described. Briefly, data were extracted and subjected to a low-pass filter at 1.8 Hz. A linear function was used to scale up the 405-nm channel signal to the 490-nm channel signal to obtain the fitted 405-nm signal. The resultant ΔF/F was calculated as (raw 490 nm signal−fitted 405 nm signal)/(fitted 405 nm signal). ΔF/F was then time-binned by a factor of 2.5 times the sampling frequency and down-sampled to 10 Hz. For all bouts, the mean fluorescence for 5 min before the first lick was calculated and subtracted from the entire session. The licks from the lickometer were simultaneously recorded. The area under the curve (AUC) was quantified by integrating the baseline-subtracted fluorescence signals for 30 sec after the start of the bout. For FIG. 10D, the data were quantified as ΔF/F change between 1 sec prior to, and at the first lick (0 sec). For IG infusion experiments (FIG. 4E), AUC was quantified during the 5-min of infusion.
To label the dBNST→pre-LC circuit, 100 nl of CAV-Cre was injected into the pre-LC followed by the injection of AAV5-DIO-mCherry or AAV1-flex-GCaMP6S into the dBNST. These animals were used for experiments at least two weeks after the injection.

C[N+]1([O-])CCN(C2=Nc3cc(Cl)ccc3Nc3ccccc32)CC1 [CNO, clozapine N-oxide]
pre-LC^PDYN neurons inhibited by CNO [1]: 13 out of 14 | thirst or sodium appetite in control animals (pre-LC^PDYN neurons [2]; AAV-DIO-mCherry injected animals, FIG. 8H): did not affect thirst or sodium appetite | thirst under chemogenetic inhibition (pre-LC^PDYN neurons [2]; hM4Di, FIG. 8G): did not affect thirst | sodium intake under chemogenetic inhibition (pre-LC^PDYN neurons [2]; hM4Di, sodium-depleted animals, FIG. 8G): reduced sodium intake

[Cl-].[K+] [KCl]
pre-LC^PDYN neuron activity upon ingestion of KCl (pre-LC^PDYN neurons [3]; sodium-depleted animals, 0.5 M KCl, FIG. 3D): no suppression was observed; also recorded: did not affect

[Cl-].[Na+] [NaCl]
subsequent sodium ingestion after gastric preloading of NaCl ([4]; IG 0.5 M NaCl, 0.1 ml/min for 5 min, FIG. 4B left): did not affect | appetite reduction after a long period of IG infusion ([4]; IG NaCl, after 2 hrs): 41.3±6.0% | sodium appetite after oral NaCl contact ([4]; oral, FIG. 4B left): quickly quenched the appetite | pre-LC^PDYN neuron activity, low concentration of NaCl (pre-LC^PDYN neurons [3]; 0.06 M NaCl, FIG. 10B): exhibited inhibitory effects | pre-LC^PDYN neuron activity after brief NaCl intake (pre-LC^PDYN neurons [3]; NaCl intake for 1 sec, FIG. 3F): robust suppression for several minutes; also recorded: induced persistent suppression | neural activity of pre-LC^PDYN neurons, IG infusion of NaCl (pre-LC^PDYN neurons [3]; intragastric infusion, 0.15 M NaCl, 0.1 ml/min, FIGS. 4D and 4E): no inhibitory effect; also recorded: not affected | neural activity of pre-LC^PDYN neurons, oral NaCl consumption (pre-LC^PDYN neurons [3]; oral, 0.15 M NaCl, FIGS. 4C and 4E): drastically reduced

N=C(N)NC(=O)c1nc(Cl)c(N)nc1N [amiloride, reference compound]
NaCl consumption in the presence of amiloride [5]: reduced | NaCl-induced suppression of pre-LC^PDYN neurons with amiloride (pre-LC^PDYN neurons [3]; sodium-depleted animals, 0.5 M NaCl+0.1 mM amiloride, FIG. 3E): fully abolished; also recorded: eliminated inhibition | responses of dBNST→pre-LC neurons upon NaCl intake with amiloride (dBNST→pre-LC neurons): strongly inhibited
